Data reported in US20250276955A1, “CORONAVIRUS MAIN PROTEASE INHIBITORS AND METHODS USING SAME” (Baylor College of Medicine, priority 2021, published 2025).
Converted amounts (≈) assume the structure as drawn. “Also recorded” adds a separate entry of the source. Like-named read-outs stand apart in the source and are kept apart here.

Key:
HepG2 cells [1] = assay: HepG2 cytotoxicity assay (XTT)
Human Cathepsin B = target: T1, Human Cathepsin B (Homo sapiens, UniProt P07858); assay: Cathepsin B assay; assay type: biochemical
T1 construct: purchased BPS Bioscience 79590
Experimental: A kit from BPS Bioscience (#79590) was used with adjustments to the manufacturer's protocol as follows: The activated enzyme was diluted 250-fold just before use, and the reaction was run at RT in black 96 half-area plates in a total reaction volume of 50 uL containing 0.01% Tween-20. Instead of measuring endpoints at 60 min the increase in fluorescence (Ex 360 nm, Em 460 nm) per second (RFU/s) was obtained from linear progress curves over 10 min. Fractional activities were calculated from reactions with no inhibitors. E-64 was used as a positive control.

[2] = target: SARS-CoV-2 main protease (M^pro) (Severe acute respiratory syndrome coronavirus 2, UniProt P0DTD1); assay: Protein thermal shift stability assay (SYPRO Orange); assay type: binding
293T = 293T relative cell viability; conditions: day 3, 10 μM
[3] = Plasma stability assay, human plasma; assay type: in vitro ADME; conditions: 10 μM, 37° C., after 2 h incubation
Experimental: (§1) Compound CDD-1713 and CDD-1976 were incubated in human and mouse plasma respectively at a concentration of 10 μM in duplicate (n=2) at 37° C. At time-points of 0, 30, 60 and 120 min, 15 μL of sample were taken out and the reactions terminated by adding 75 μL of ice-cold methanol. The reaction mixtures were then vortexed for 30 sec and centrifuged at rcf 15,000 for 15 min. Following centrifugation, 3 μL of the supernatant was analyzed using UHPLC-Q Exactive Orbitrap MS. The percentage of test compound remaining at the individual time points relative to the 0 min sample was then determined.

[4] = Plasma stability assay, mouse plasma; assay type: in vitro ADME; conditions: 10 μM, 37° C., after 2 h incubation
Experimental: as §1

HepG2 cells [5] = assay: HepG2 cell uptake assay; assay type: in vitro ADME; conditions: 10 μM, 2 hours
Experimental: The HepG2 cells maintained in DMEM (containing 1 g/L glucose, 10% fetal bovine serum and 1% penicillin/streptomycin) were seeded in a 12-well plate (a final density of 5×10^5/well) for cell uptake assay and 96-well plate for cytotoxicity assay (a final density of 5×10^4/well). The plate was incubated at 37° C. for 24 h.
The cells in 12-well plate were treated with CDD-1713 or CDD-1976 (final concentration: 10 μM). The plate was incubated at 37° C. for another 2 hr. The medium in the plate was decanted and the cells were rinsed with 1 mL of 1×DPBS for three times. 0.5 mL of 0.25% Trypsin was added into each well and incubated for 3.5 min (at 37° C.). 1 mL of complete medium was added into each well to quench the reaction. After spinning at 350×g for 5 min, the cell pellet was reconstituted in MeOH/H2O (v/v 1/1) and CDD-1713 or CDD-1976 was extracted from 100 μL of the resulting mixture with 100 μL of ice-cold methanol. The mixtures were centrifuged at rcf 15,000 for 15 min. Three μL of the supernatant was analyzed by UHPLC-Q Exactive Orbitrap MS (Thermo Fisher Scientific, USA) equipped with 50 mm×4.6 mm column (XDB C-18, Agilent Technologies, USA). The column temperature was set at 40° C. Ultra-pure nitrogen was applied as the sheath (45 arbitrary unit), auxiliary (10 arbitrary unit), sweep (1.0 arbitrary unit) and the collision gas. […]

HOVPro-Gi.1 = target: T2, HOVPro-Gi.1 (Norovirus, UniProt Q83883); assay: Thermal shift, HOVPro-Gi.1; assay type: binding
T2 construct: HOVPro-Gi.1

HOVPro-Gii.4 = assay: Thermal shift, HOVPro-Gii.4; assay type: binding
[6] = Apparent solubility in PBS buffer; conditions: PBS buffer with 2% DMSO, aqueous buffer, kinetic from dmso stock
SARS-COV-2 M^pro-His6 = SARS-COV-2 M^pro-His6 (Severe acute respiratory syndrome coronavirus 2, UniProt P0DTD1); assay: biochemical; assay type: biochemical; conditions: 25 nM enzyme, 15 μM fluorescent peptide, Morrison equation; Inactive = less than 50% inhibition at 25 μM compound; read-out: M^pro-His Ki
[7] = test system: SARS-COV-2 (USA_WA1/2020 isolate) in VERO E6 cells; assay: Real-Time Cell Analysis (RTCA) assay of SARS-COV-2 replication; assay type: cell-based; conditions: VERO E6 cells, 75 h
human thrombin = target: T3, human thrombin (Homo sapiens, UniProt P00734); assay: Thrombin fluorescence assay; assay type: biochemical; conditions: fluorescence assay
T3 construct: purchased Sigma-Aldrich MAK243

[8] = target: SARS-COV-2 M^pro (authentic N- and C-termini) (Severe acute respiratory syndrome coronavirus 2, UniProt P0DTD1); assay: biochemical; assay type: biochemical

T2 sequence (Q83883 1101-1281): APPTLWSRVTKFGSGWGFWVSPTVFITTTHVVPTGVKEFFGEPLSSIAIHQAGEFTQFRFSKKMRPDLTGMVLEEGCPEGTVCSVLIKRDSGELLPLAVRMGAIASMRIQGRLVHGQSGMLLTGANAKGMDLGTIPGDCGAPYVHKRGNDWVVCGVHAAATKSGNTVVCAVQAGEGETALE

## COc1cc(-c2cccc3[nH]ncc23)cc(C=O)c1OCC(=O)N(C)C [CDD-1713, 2-(2-formyl-4-(1H-indazol-4-yl)-6-methoxyphenoxy)-N,N-dimethylacetamide]
HepG2 cells [1]; 100 μM
  cytotoxicity in HepG2 cells (in words): no obvious cytotoxicity
HepG2 cells [1]; Homo sapiens, HepG2, 24 h, read-out: HepG2 cell viability IC50
  IC50: > 100000 nM
Human Cathepsin B
  Human Cathepsin B, Fractional Remaining Activity: 0.97
[2]
  stabilization of M^pro in thermal shift assay (in words): stabilized; also recorded: concentration-dependent stabilization
[2]; 50 μM compound, […]
  ΔTm of Mpro at 50 μM compound conc.: 2.99 °C
293T
  293T day 3 relative cell viability (% inhibition at 10 μM): None
[3]
  compound remaining in human plasma: 80%
[4]
  compound remaining in mouse plasma: 80%
HepG2 cells [5]
  cell permeability in HepG2 uptake assay (in words): moderate cell permeability
HOVPro-Gi.1
  ΔTm of HOVPro-Gi.1 at 50 μM compound conc.: −0.09 °C
HOVPro-Gii.4
  ΔTm of HOVPro-Gii.4 at 50 μM compound conc.: −0.73 °C
[6]
  solubility: 157 µM (≈ 55.4 µg/mL)
SARS-COV-2 M^pro-His6
  Ki: 44.8 ± 2.9 nM
[7]; Severe acute respiratory syndrome coronavirus 2, Vero C1008, read-out: IC50, inhibition of SARS-COV-2 induced cell death (RTCA)
  IC50: 5190 nM
[7]
  prevention of SARS-COV-2 induced cell death (in words): reduced cell death in a dose-dependent manner
Human thrombin
  Thrombin inhibition: None
  thrombin inhibition (in words): No inhibition
[8]; 25 nM enzyme, 15 μM fluorescent peptide, Morrison equation, Inactive = less than 50% inhibition at 25 μM compound, read-out: M^pro Ki
  Ki: 64.8 ± 4.9 nM
[8]; Morrison equation, read-out: apparent Ki against M^pro
  Ki: 64.8 nM
[8]; Table 5, read-out: Ki,app
  Ki: 64.8 nM
[8]; read-out: Ki, app towards SARS-CoV-2 M^pro, athentic termini, authentic termini
  Ki: 64.8 nM
